Test results published in patent publication US20240400564A1 (Syndax Pharmaceuticals, Inc, priority 2021, published 2024).

Biological target: hERG (Homo sapiens, UniProt Q12809)
Experiment: Patch clamp assay (hERG tail currents, whole-cell)

Chain of hERG (Q12809 whole entry): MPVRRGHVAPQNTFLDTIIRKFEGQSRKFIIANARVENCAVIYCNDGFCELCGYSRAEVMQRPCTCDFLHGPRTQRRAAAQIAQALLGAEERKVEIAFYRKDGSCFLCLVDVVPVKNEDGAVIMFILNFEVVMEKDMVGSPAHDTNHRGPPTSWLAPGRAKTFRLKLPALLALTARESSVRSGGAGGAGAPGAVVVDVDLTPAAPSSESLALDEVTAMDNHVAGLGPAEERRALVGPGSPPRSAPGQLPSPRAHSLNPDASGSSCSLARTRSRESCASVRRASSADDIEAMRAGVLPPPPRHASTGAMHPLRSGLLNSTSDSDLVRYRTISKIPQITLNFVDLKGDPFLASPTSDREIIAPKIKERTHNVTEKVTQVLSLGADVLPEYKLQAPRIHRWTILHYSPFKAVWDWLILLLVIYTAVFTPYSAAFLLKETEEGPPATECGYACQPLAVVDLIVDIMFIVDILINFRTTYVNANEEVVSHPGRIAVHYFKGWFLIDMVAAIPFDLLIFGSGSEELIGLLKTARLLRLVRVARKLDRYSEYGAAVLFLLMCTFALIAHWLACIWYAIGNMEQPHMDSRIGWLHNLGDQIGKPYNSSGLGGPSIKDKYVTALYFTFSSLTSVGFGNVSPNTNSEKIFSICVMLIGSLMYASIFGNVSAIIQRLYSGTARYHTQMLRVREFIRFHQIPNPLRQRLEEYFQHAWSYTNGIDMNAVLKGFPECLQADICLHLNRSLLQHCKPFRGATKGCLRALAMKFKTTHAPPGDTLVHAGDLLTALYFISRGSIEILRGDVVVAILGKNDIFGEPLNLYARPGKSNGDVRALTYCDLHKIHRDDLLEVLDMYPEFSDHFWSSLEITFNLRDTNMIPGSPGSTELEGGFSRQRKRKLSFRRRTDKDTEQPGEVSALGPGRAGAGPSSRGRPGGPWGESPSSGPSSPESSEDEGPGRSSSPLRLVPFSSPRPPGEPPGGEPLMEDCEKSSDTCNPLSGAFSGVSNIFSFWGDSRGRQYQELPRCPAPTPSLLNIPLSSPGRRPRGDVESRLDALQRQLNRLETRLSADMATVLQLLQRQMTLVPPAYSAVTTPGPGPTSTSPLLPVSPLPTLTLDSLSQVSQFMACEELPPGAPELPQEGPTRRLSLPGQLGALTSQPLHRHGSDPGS

Row | SMILES | hERG % Remaining (10 μM compound) | hERG % Remaining (30 μM compound) | hERG % Remaining (100 μM compound)
1 | CCN(C(=O)c1cc(F)ccc1Oc1cncnc1N1CC2(CCN(C[C@@H]3CC[C@@H](NS(=O)(=O)c4cccc(OC)c4)CO3)CC2)C1)C(C)C [Example 66, N-Ethyl-5-fluoro-N-isopropyl-2-((4-(7-(((2S,5R)-5-((3-methoxyphenyl)sulfonamido)tetrahydro-2H-pyran-2-yl)methyl)-2,7-diazaspiro[3.5]nonan-2-yl)pyrimidin-5-yl)oxy)benzamide] | + (<33%) | + (<33%) | –
2 | CCNS(=O)(=O)N[C@@H]1CC[C@@H](CN2CCC3(CC2)CN(c2ncncc2Oc2ccc(F)cc2C(=O)N2[C@H](C)COC[C@H]2C)C3)OC1 [Example 125, {[(3R,6S)-6-{[2-(5-{2-[(3R,5R)-3,5-Dimethylmorpholine-4-carbonyl]-4-fluorophenoxy}pyrimidin-4-yl)-2,7-diazaspiro[3.5]nonan-7-yl]methyl}oxan-3-yl]sulfamoyl}(ethyl)amine] | – | +++ (≥66%) | –
3 | C[C@@H]1COC[C@H](C)N1C(=O)c1cc(F)ccc1Oc1cncnc1N1CC2(CCN(C[C@@H]3CC[C@@H](NS(=O)(=O)N4CCC4)CO3)CC2)C1 [Example 161, N-((3R,6S)-6-((2-(5-(2-((3R,5S)-3,5-Dimethylmorpholine-4-carbonyl)-4-fluorophenoxy)pyrimidin-4-yl)-2,7-diazaspiro[3.5]nonan-7-yl)methyl)tetrahydro-2H-pyran-3-yl)azetidine-1-sulfonamide] | – | +++ (≥66%) | –
4 | CC(C)N(CC(F)F)C(=O)c1cc(F)ccc1Oc1cncnc1N1CC2(CCN(C[C@@H]3CC[C@@H](NS(=O)(=O)N(C)CCO)CO3)CC2)C1 [Example 239, N-(2,2-difluoroethyl)-5-fluoro-2-((4-(7-(((2S,5R)-5-((N-(2-hydroxyethyl)-N-methylsulfamoyl)amino)tetrahydro-2H-pyran-2-yl)methyl)-2,7-diazaspiro[3.5]nonan-2-yl)pyrimidin-5-yl)oxy)-N-isopropylbenzamide] | – | +++ (≥66%) | –
5 | CCNS(=O)(=O)N[C@@H]1CC[C@@H](CN2CCC3(CC2)CN(c2ncncc2Oc2ccc(F)cc2C(=O)N(CC(F)(F)F)C(C)C)C3)OC1 [Example 153, 2-((4-(7-(((2S,5R)-5-((N-Ethylsulfamoyl)amino)tetrahydro-2H-pyran-2-yl)methyl)-2,7-diazaspiro[3.5]nonan-2-yl)pyrimidin-5-yl)oxy)-5-fluoro-N-isopropyl-N-(2,2,2-trifluoroethyl)benzamide] | – | +++ (≥66%) | –
6 | CC(C)N(C(=O)c1cc(F)ccc1Oc1cncnc1N1CC2(CCN(C[C@@H]3CC[C@@H](NS(=O)(=O)N(C)C(C)C)CO3)CC2)C1)C1CC(F)(F)C1 [Example 119, N-(3,3-Difluorocyclobutyl)-5-fluoro-N-isopropyl-2-((4-(7-(((2S,5R)-5-((N-isopropyl-N-methylsulfamoyl)amino)tetrahydro-2H-pyran-2-yl)methyl)-2,7-diazaspiro[3.5]nonan-2-yl)pyrimidin-5-yl)oxy)benzamide] | – | + (<33%) | –
7 | CC(C)N(CC(F)F)C(=O)c1cc(F)ccc1Oc1nncnc1N1CC2(CCN(C[C@@H]3CC[C@@H](NS(=O)(=O)N4CCC4)CO3)CC2)C1 [Example 189, 2-((5-(7-(((2S,5R)-5-(Azetidine-1-sulfonamido)tetrahydro-2H-pyran-2-yl)methyl)-2,7-diazaspiro[3.5]nonan-2-yl)-1,2,4-triazin-6-yl)oxy)-N-(2,2-difluoroethyl)-5-fluoro-N-isopropylbenzamide] | – | +++ (≥66%) | –
8 | CCN(C(=O)c1cc(F)ccc1Oc1cncnc1N1CC2(CCN(C[C@@H]3CC[C@@H](NS(=O)(=O)c4cccnc4)CO3)CC2)C1)C(C)C [Example 63, N-Ethyl-5-fluoro-N-isopropyl-2-((4-(7-(((2S,5R)-5-(pyridine-3-sulfonamido)tetrahydro-2H-pyran-2-yl)methyl)-2,7-diazaspiro[3.5]nonan-2-yl)pyrimidin-5-yl)oxy)benzamide] | +++ (≥66%) | ++ (233% and ≤66%) | –
9 | CC(C)N(CC(F)(F)F)C(=O)c1cc(F)ccc1Oc1cncnc1N1CC2(CCN(C[C@@H]3CC[C@@H](NS(=O)(=O)N(C)C)CO3)CC2)C1 [Example 107, 2-((4-(7-(((2S,5R)-5-((N,N-Dimethylsulfamoyl)amino)tetrahydro-2H-pyran-2-yl)methyl)-2,7-diazaspiro[3.5]nonan-2-yl)pyrimidin-5-yl)oxy)-5-fluoro-N-isopropyl-N-(2,2,2-trifluoroethyl)benzamide] | +++ (≥66%) | ++ (233% and ≤66%) | –
10 | CC(C)N(C(=O)c1cc(F)ccc1Oc1cncnc1N1CC2(CCN(C[C@@H]3CC[C@@H](NS(=O)(=O)N4CCC4)CO3)CC2)C1)C1CC(F)(F)C1 [Example 118, 2-((4-(7-(((2S,5R)-5-(Azetidine-1-sulfonamido)tetrahydro-2H-pyran-2-yl)methyl)-2,7-diazaspiro[3.5]nonan-2-yl)pyrimidin-5-yl)oxy)-N-(3,3-difluorocyclobutyl)-5-fluoro-N-isopropylbenzamide] | ++ (233% and ≤66%) | + (<33%) | –
11 | CNS(=O)(=O)N[C@@H]1CC[C@@H](CN2CCC3(CC2)CN(c2ncncc2Oc2ccc(F)cc2C(=O)N(C(C)C)C(C)C)C3)OC1 [Example 143, 5-Fluoro-N,N-diisopropyl-2-((4-(7-(((2S,5R)-5-((N-methylsulfamoyl)amino)tetrahydro-2H-pyran-2-yl)methyl)-2,7-diazaspiro[3.5]nonan-2-5-yl)pyrimidin-5-yl)oxy)benzamide] | – | +++ (≥66%) | +++ (≥66%)
12 | CCN(CC)S(=O)(=O)N[C@@H]1CC[C@@H](CN2CCC3(CC2)CN(c2ncncc2Oc2ccc(F)cc2C(=O)N(C(C)C)[C@@H]2CCOC2)C3)OC1 [Example 165, 2-((4-(7-(((2S,5R)-5-((N,N-Diethylsulfamoyl)amino)tetrahydro-2H-pyran-2-yl)methyl)-2,7-diazaspiro[3.5]nonan-2-yl)pyrimidin-5-yl)oxy)-5-fluoro-N-isopropyl-N-((R)-tetrahydrofuran-3-yl)benzamide] | +++ (≥66%) | ++ (233% and ≤66%) | –
13 | C[C@@H]1COC[C@@H](C)N1C(=O)c1cc(F)ccc1Oc1cncnc1N1CC2(CCN(C[C@@H]3CC[C@@H](NS(=O)(=O)N(C)C)CO3)CC2)C1 [Example 123, {[(3R,6S)-6-{[2-(5-{2-[(3R,5R)-3,5-Dimethylmorpholine-4-carbonyl]-4-fluorophenoxy}pyrimidin-4-yl)-2,7-diazaspiro[3.5]nonan-7-yl]methyl}oxan-3-yl]sulfamoyl}dimethylamine] | – | +++ (≥66%) | –
14 | CC(C)N(CC(F)F)C(=O)c1cc(F)ccc1Oc1cncnc1N1CC2(CCN(C[C@@H]3CC[C@@H](NS(=O)(=O)N4CCOCC4)CO3)CC2)C1 [Example 94, N-(2,2-Difluoroethyl)-5-fluoro-N-isopropyl-2-((4-(7-(((2S,5R)-5-(morpholine-4-sulfonamido)tetrahydro-2H-pyran-2-yl)methyl)-2,7-diazaspiro[3.5]nonan-2-yl)pyrimidin-5-yl)oxy)benzamide] | +++ (≥66%) | ++ (233% and ≤66%) | –
